Source: ChEMBL document CHEMBL5034015, “Structure-Based Optimization of 3-Phenyl-N-(2-(3-phenylureido)ethyl)thiophene-2-sulfonamide Derivatives as Selective Mcl-1 Inhibitors” (J Med Chem, 2021)
pIC50, pKi: −log10 of the molar value. Active and inactive are the calls of the source. The rule behind the calls is not given here.

Tests used:
[1] = molecular target: T1, Bcl-2-like protein 1 (Homo sapiens, UniProt Q07817); experiment: Binding affinity to full length human Bcl-xl expressed in Escherichia coli BL21 (DE3) at 100 uM preincubated for 30 mins followed by 5-FAM-QEDIIIINIARHLAQVGDSMD-RSIPPG tracer addition and measured after 20 mins by fluorescence polarization assay relative to control; settings: time 50.0 min
[2] = test system: HeLa; experiment: cells; settings: Homo sapiens, 48 h
Description: Cytotoxicity against human HeLa cells assessed as inhibition of cell growth incubated for 48 hrs by CCK8 assay

[3] = test system: HEK-293T; experiment: Cytotoxicity against HEK293T cells assessed as reduction in cell viability incubated for 48 hrs by CCK8 assay; settings: Homo sapiens
[4] = test system: HL-60; experiment: cells; settings: Homo sapiens, HL-60, 48 h
Description: Cytotoxicity against human HL-60 cells assessed as inhibition of cell growth incubated for 48 hrs by CCK8 assay

[5] = molecular target: T2, Apoptosis regulator Bcl-2 (Homo sapiens, UniProt P10415); experiment: Binding affinity to full length human Bcl-2 expressed in Escherichia coli BL21 (DE3) at 100 uM preincubated for 30 mins followed by 5-FAM-QEDIIIINIARHLAQVGDSMD-RSIPPG tracer addition and measured after 20 mins by fluorescence polarization assay relative to control; settings: time 50.0 min
[6] = molecular target: T3, Induced myeloid leukemia cell differentiation protein Mcl-1 (Homo sapiens, UniProt Q07820); experiment: Binding affinity to full length human MCL1 expressed in Escherichia coli BL21 (DE3) at 100 uM preincubated for 30 mins followed by 5-FAM-QEDIIIINIARHLAQVGDSMD-RSIPPG tracer addition and measured after 20 mins by fluorescence polarization assay relative to control; settings: time 50.0 min
[7] = test system: RS4-11; experiment: cells; settings: Homo sapiens, RS4-11, 48 h
Description: Cytotoxicity against human RS4-11 cells assessed as inhibition of cell growth incubated for 48 hrs by CCK8 assay

[8] = molecular target: T1, Bcl-2-like protein 1; experiment: Binding affinity to full length human Bcl-xl expressed in Escherichia coli BL21 (DE3) assessed as inhibition constant preincubated for 30 mins followed by 5-FAM-QEDIIIINIARHLAQVGDSMD-RSIPPG tracer addition and measured after 20 mins by fluorescence polarization assay
[9] = molecular target: T2, Apoptosis regulator Bcl-2; experiment: Binding affinity to full length human Bcl-2 expressed in Escherichia coli BL21 (DE3) assessed as inhibition constant preincubated for 30 mins followed by 5-FAM-QEDIIIINIARHLAQVGDSMD-RSIPPG tracer addition and measured after 20 mins by fluorescence polarization assay
[10] = molecular target: T3, Induced myeloid leukemia cell differentiation protein Mcl-1; experiment: Binding affinity to full length human MCL1 expressed in Escherichia coli BL21 (DE3) assessed as inhibition constant preincubated for 30 mins followed by 5-FAM-QEDIIIINIARHLAQVGDSMD-RSIPPG tracer addition and measured after 20 mins by fluorescence polarization assay
[11] = molecular target: T1, Bcl-2-like protein 1; experiment: Binding affinity to full length human Bcl-xl expressed in Escherichia coli BL21 (DE3) at up to 100 uM preincubated for 30 mins followed by 5-FAM-QEDIIIINIARHLAQVGDSMD-RSIPPG tracer addition and measured after 20 mins by fluorescence polarization assay; settings: dose microM <=100, time 50.0 min
[12] = molecular target: T2, Apoptosis regulator Bcl-2; experiment: Binding affinity to full length human Bcl-2 expressed in Escherichia coli BL21 (DE3) at up to 100 uM preincubated for 30 mins followed by 5-FAM-QEDIIIINIARHLAQVGDSMD-RSIPPG tracer addition and measured after 20 mins by fluorescence polarization assay; settings: dose microM <=100, time 50.0 min

T1 sequence (Q07817 whole entry): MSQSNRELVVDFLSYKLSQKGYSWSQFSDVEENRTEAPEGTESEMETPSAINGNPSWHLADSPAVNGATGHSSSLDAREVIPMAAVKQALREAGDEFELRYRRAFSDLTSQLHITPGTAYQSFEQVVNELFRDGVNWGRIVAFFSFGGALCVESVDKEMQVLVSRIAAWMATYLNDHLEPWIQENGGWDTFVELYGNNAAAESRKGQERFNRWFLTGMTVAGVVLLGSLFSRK
T2 sequence (P10415 whole entry): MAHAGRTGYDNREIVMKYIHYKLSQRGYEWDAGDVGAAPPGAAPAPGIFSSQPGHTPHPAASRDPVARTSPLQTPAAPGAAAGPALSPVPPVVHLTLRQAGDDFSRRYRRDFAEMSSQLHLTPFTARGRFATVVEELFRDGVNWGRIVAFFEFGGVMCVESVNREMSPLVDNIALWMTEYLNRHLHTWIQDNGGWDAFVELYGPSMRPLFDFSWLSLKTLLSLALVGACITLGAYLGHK
T3 sequence (Q07820 whole entry): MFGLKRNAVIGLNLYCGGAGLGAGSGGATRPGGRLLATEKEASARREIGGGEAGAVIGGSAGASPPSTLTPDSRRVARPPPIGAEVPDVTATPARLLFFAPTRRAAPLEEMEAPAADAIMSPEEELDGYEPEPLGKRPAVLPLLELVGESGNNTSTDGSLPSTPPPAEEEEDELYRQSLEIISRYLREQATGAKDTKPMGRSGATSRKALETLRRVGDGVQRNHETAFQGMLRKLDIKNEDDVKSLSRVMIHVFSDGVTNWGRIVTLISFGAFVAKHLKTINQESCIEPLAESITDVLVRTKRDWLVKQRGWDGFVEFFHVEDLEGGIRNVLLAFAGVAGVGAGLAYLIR

Row | Structure (SMILES) | inhibition [1] [%] | pIC50 [2] | pIC50 [4] | inhibition [5] [%] | inhibition [6] [%] | pIC50 [7] | pKi [8] | pKi [9] | pKi [10] | Activity [11] | Activity [12] | pIC50 [3]
1 | COc1ccc(Oc2ccccc2-c2ccsc2S(=O)(=O)N2CCN(C(=S)Nc3ccc([N+](=O)[O-])cc3)CC2)cc1OC | 18 | < 4.30 | < 4.30 | 16 | 33 | < 4.30 |  |  |  |  |  | < 4.70
2 | COc1ccc(Oc2ccccc2-c2ccsc2S(=O)(=O)N2CCN(C(=O)Nc3ccc([N+](=O)[O-])cc3)CC2)cc1OC | 20 | < 4.30 | < 4.30 | 17 | 22 | < 4.30 |  |  |  |  |  | < 4.70
3 | COc1ccc(Oc2ccccc2-c2ccsc2S(=O)(=O)N2CCN(C(=O)Nc3ccc(F)cc3)CC2)cc1OC | 33 | < 4.70 | < 4.70 | 15 | 28 | 4.83 |  |  |  |  |  | < 4.30
4 | COc1ccc(Oc2ccc([N+](=O)[O-])cc2-c2ccsc2S(=O)(=O)N2CCN(C(=S)Nc3ccc([N+](=O)[O-])cc3)CC2)cc1OC | 27 | < 4.30 | < 4.30 | 16 | 26 | < 4.30 |  |  |  |  |  | < 4.30
5 | O=S(=O)(NCCNC(=S)Nc1ccc(Cl)cc1)c1ccc(-c2ccccc2OCc2ccccc2)s1 |  | 5.15 | < 4.30 |  |  | < 4.30 |  |  | 5.37 | inactive | inactive | 4.92
6 | COc1cccc(NC(=O)NCCNS(=O)(=O)c2ccc(-c3ccccc3OCc3ccccc3)s2)c1 |  | < 4.30 | 5.77 |  |  | < 4.70 |  |  | 4.96 | inactive | inactive | < 4.70
7 | COc1ccc(Oc2ccc([N+](=O)[O-])cc2-c2ccsc2S(=O)(=O)N2CCN(C(=O)Nc3ccc([N+](=O)[O-])cc3)CC2)cc1OC | 44 | < 4.30 | < 4.30 | 19 | 37 | < 4.30 |  |  |  |  |  | < 4.70
8 | COc1ccc(Oc2ccccc2-c2ccsc2S(=O)(=O)N2CCN(C(=O)Nc3cc(C(F)(F)F)cc(C(F)(F)F)c3)CC2)cc1OC | 24 | < 4.30 | < 4.70 | 23 | 44 | < 4.30 |  |  |  |  |  | < 4.70
9 | COc1cccc(NC(=S)NCCNS(=O)(=O)c2ccc(-c3ccccc3Oc3ccc([N+](=O)[O-])cc3)s2)c1 |  | < 4.30 | < 4.30 |  |  | < 4.30 |  |  | 4.89 | inactive | inactive | < 4.70
10 | O=S(=O)(c1sccc1-c1ccccc1Oc1ccc(O)c(O)c1)N1CCN(C(=S)Nc2cc(C(F)(F)F)cc(C(F)(F)F)c2)CC1 | 12 | < 4.70 | 5.66 | 20 | 72 | 5.14 |  |  |  |  |  | < 4.70
11 | O=C(Nc1ccc([N+](=O)[O-])cc1)N1CCN(S(=O)(=O)c2sccc2-c2ccccc2Oc2ccc(O)c(O)c2)CC1 | 29 | < 4.70 | 5.31 | 33 | 63 | 4.84 |  |  |  |  |  | < 4.70
12 | COc1ccc(Oc2ccccc2-c2ccsc2S(=O)(=O)N2CCN(C(=S)Nc3ccc(Cl)cc3)CC2)cc1OC | 33 | < 4.30 | < 4.30 | 18 | 43 | < 4.30 |  |  |  |  |  | < 4.70
13 | COc1ccc(Oc2ccccc2-c2ccsc2S(=O)(=O)N2CCN(C(=O)Nc3cccc([N+](=O)[O-])c3)CC2)cc1OC | 19 | < 4.30 | < 4.30 | 18 | 31 | < 4.30 |  |  |  |  |  | < 4.70

The next lines start with results.

Row | inhibition [1] [%] | pIC50 [2] | pIC50 [4] | inhibition [5] [%] | inhibition [6] [%] | pIC50 [7] | pKi [8] | pKi [9] | pKi [10] | Activity [11] | Activity [12] | Structure (SMILES) | pIC50 [3]
14 | 34 | < 4.70 | 5.35 | 30 | 74 | 5.01 |  |  |  |  |  | O=C(Nc1cccc([N+](=O)[O-])c1)N1CCN(S(=O)(=O)c2sccc2-c2ccccc2Oc2ccc(O)c(O)c2)CC1 | < 4.70
15 |  | < 4.70 | 6.22 |  |  | 5.35 | 6.00 | 5.34 | 6.49 |  |  | O=S(=O)(NCCNC(=S)Nc1cc(C(F)(F)F)cc(C(F)(F)F)c1)c1cc(-c2ccccc2Oc2ccc(O)c(O)c2)cs1 | < 4.70
16 |  | < 4.30 | 5.16 |  |  | 5.21 |  | 5.34 | 5.85 | inactive |  | O=C(NCCNS(=O)(=O)c1sccc1-c1ccccc1Oc1ccc(O)c(O)c1)Nc1cc(Cl)cc(Cl)c1 | 4.97
17 |  | < 4.70 | 5.89 |  |  | 5.41 | 5.77 | 5.28 | 6.29 |  |  | O=C(NCCNS(=O)(=O)c1cc(-c2ccccc2Oc2ccc(O)c(O)c2)cs1)Nc1cc(C(F)(F)F)cc(C(F)(F)F)c1 | < 4.30
18 | 32 | 4.83 | 5.09 | 33 | 95 | 5.17 |  |  |  |  |  | O=C(Nc1ccc(F)cc1)N1CCN(S(=O)(=O)c2sccc2-c2ccccc2Oc2ccc(O)c(O)c2)CC1 | 4.81
19 |  | < 4.30 | 5.37 |  |  | 5.32 |  | 5.25 | 6.08 | inactive |  | O=S(=O)(NCCNC(=S)Nc1cc(C(F)(F)F)cc(C(F)(F)F)c1)c1sccc1-c1ccccc1Oc1ccc(O)c(O)c1 | 5.12
20 |  | < 4.30 | 5.24 |  |  | 5.31 |  | 4.77 | 5.68 | inactive |  | O=C(NCCNS(=O)(=O)c1sccc1-c1ccccc1Oc1ccc(O)c(O)c1)Nc1cc(C(F)(F)F)cc(C(F)(F)F)c1 | 5.05
21 |  | 5.10 | 5.49 |  |  | 5.32 |  |  | 6.14 | inactive | inactive | Cc1ccc(-c2ccsc2S(=O)(=O)NCCNC(=S)Nc2cc(C(F)(F)F)cc(C(F)(F)F)c2)c(Oc2ccc(O)c(O)c2)c1 | 5.10
22 |  | < 4.70 | < 4.30 |  |  | < 4.70 |  |  | 5.80 | inactive | inactive | Cc1cc(C)cc(NC(=O)NCCNS(=O)(=O)c2ccc(-c3ccccc3Oc3ccc(N)cc3)s2)c1 | < 4.70
23 |  | 5.19 | 5.46 |  |  | 5.29 |  | 5.54 | 6.23 | inactive |  | Cc1ccc(-c2ccsc2S(=O)(=O)NCCNC(=O)Nc2cc(Cl)cc(Cl)c2)c(Oc2ccc(O)c(O)c2)c1 | 5.17
24 | 3 | < 4.30 | 5.26 | 2 | 20 | 5.12 |  |  |  |  |  | O=S(=O)(c1sccc1-c1ccccc1Oc1ccc(O)c(O)c1)N1CCN(C(=S)Nc2ccc(Cl)cc2)CC1 | < 4.30
25 |  | < 4.70 | 5.09 |  |  | 5.17 |  |  | 5.23 | inactive | inactive | O=C(NCCNS(=O)(=O)c1ccc(-c2ccccc2Oc2ccc([N+](=O)[O-])c([N+](=O)[O-])c2)s1)Nc1ccc(Cl)cc1 | < 4.70
26 |  | < 4.30 | < 4.30 |  |  | < 4.70 |  |  | 5.22 | inactive | inactive | COc1cccc(NC(=S)NCCNS(=O)(=O)c2sccc2-c2ccc(C)cc2Oc2ccc(O)c(O)c2)c1 | < 4.30
27 |  | 5.17 | 5.54 |  |  | 5.29 |  |  | 5.82 | inactive | inactive | Cc1ccc(-c2ccsc2S(=O)(=O)NCCNC(=S)Nc2ccc([N+](=O)[O-])cc2)c(Oc2ccc(O)c(O)c2)c1 | 5.09
28 |  | < 4.30 | 5.19 |  |  | 5.19 |  |  | 6.44 | inactive | inactive | CC(C)c1ccc(Oc2ccc(O)c(O)c2)c(-c2ccsc2S(=O)(=O)NCCNC(=O)Nc2cc(Cl)cc(Cl)c2)c1 | < 5.00
